Laboratory results reported in patent publication US9296710B2, “Bicyclo (3.1.0) hexane-2, 6-dicarboxylic acid derivatives as mGlu2 receptor agonist” (Eli Lilly and Company, priority 2011, dated 2016).
Counter-ions that a name gives are not always drawn. One block for each molecule: values may come before it.

How the values were obtained:
[1] = system: PCP-induced hyperlocomotor activity in mice; test: Reversal of Phencyclidine (PCP)-Induced Hyperlocomotor Activity in Mice; type: in vivo, mouse
Text: This assay for Reversal of Phencyclidine (PCP)-Induced Hyperlocomotor Activity in Mice is run substantially as the Reversal of Phencyclidine (PCP)-Induced Hyperlocomotor Activity in Rats assay provided above, using mice instead of rats and with the changes noted below.
Motor activity is monitored by placing individual male, ICR (CD-1), (Harlan, Indianapolis, Ind.) mice in transparent, plastic shoe-box cages of the dimensions 45×25×20 cm, with 0.5 cm depth of wood chips as bedding, and plastic lid on top of the cage. Motor monitors (Kinder Scientific) consist of a rectangular rack of 12 photobeams arranged in an 8×4 formation, (or a high density grouping of 22 in a 15×7 pattern) at a height of 2.5 cm. The shoe box cage is placed inside of these racks, with the racks on a 3 foot high tabletop in an isolated room. A compound of the present invention is dosed (intraperitoneal route, non-prodrug) usually within a range of 0.3-30 mg/kg; though higher doses may be used, 30 minutes prior to a 7.5 mg/kg challenge dose of phencyclidine (PCP). On the test day, mice are placed in the test cage and allowed to acclimate for 45 minutes prior to PCP challenge; mice are monitored for an additional 60 minutes following PCP administration.
Power analyses have determined that 7-8 mice per group are needed to have appropriate statistical power for detecting treatment differences (power=0.8).

[2] = system: immobility in forced swim test in mice; test: Forced Swim Test in Rodents (mice); type: in vivo, mouse; details: for ED60 (60% of the amount of immobility relative to vehicle controls): intraperitoneal dosing 60 min prior to testing
Protocol: In this assay, mechanisms with purported antidepressant-like activity decrease immobility in a brief inescapable forced swim episode.
The forced-swim test was conducted in mice (male, NIH-Swiss mice, 20-25 g, Harlan Sprague-Dawley, Indianapolis, Ind.). Mice are placed in clear plastic cylinders (diameter 10 cm; height: 25 cm) filled to 6 cm with 22-25° C. water for six min. The duration of immobility is recorded during the last 4 min of a six-minute trial. The compounds of Examples 2, 3, 8, 11, and 12 are tested following intraperitoneal dosing, 60 min prior to testing. Imipramine is used as a positive control for these studies. Compounds are formulated in a water vehicle, with minimal NaOH added. The amount of time spent immobile (defined as movements only necessary to keep the subject's head above water) is the dependent measure and recorded by an observer blinded to the drug treatment of the subjects. Data are analyzed by post-hoc Dunnett's test with alpha level set at 0.05.

[3] = In Vitro Intestinal Prodrug Hydrolysis Assay; type: in vitro ADME; details: 1 h, 10 µM, pH 7.4
Protocol: Frozen human duodenum intestinal homogenates (1:2 tissue:buffer ratio using 100 mM Tris Phosphate buffer, pH 7.4) are obtained from Celsius In Vitro Technologies (Baltimore, Md.) that were both phenylmethylsulphonylfluoride (PMSF) and EDTA free.
Each lot of human duodenum is obtained from a single donor and the intestine is scraped and the sections are frozen separate. All original tissue collections are performed at 4° C. and immediately frozen at −70° C.
Hydrolysis of the positive control, Internal Prodrug Compound A to Internal Compound Drug A, run in every batch averaged 75.3% (n=20). Final values are then normalized relative to the formation of Internal Compound Drug A.

PepT1 = target: T1, PepT1 (Homo sapiens, UniProt P46059); test: In Vitro PepT1 GlySar Inhibition Screen; type: cell-based; details: prodrug at 5 mM, pH 6.0, PepT1 transiently transfected HeLa cells, 5 μM [14C]Gly-Sar and 20 μM cold Gly-Sar; read-out: Mean GlySar Uptake Inhibition %
T1 construct: expressed in transfected cells; host or cells: HeLa cells (ATCC), transient transfection with FUGENE6
T1 sequence (P46059 1-708): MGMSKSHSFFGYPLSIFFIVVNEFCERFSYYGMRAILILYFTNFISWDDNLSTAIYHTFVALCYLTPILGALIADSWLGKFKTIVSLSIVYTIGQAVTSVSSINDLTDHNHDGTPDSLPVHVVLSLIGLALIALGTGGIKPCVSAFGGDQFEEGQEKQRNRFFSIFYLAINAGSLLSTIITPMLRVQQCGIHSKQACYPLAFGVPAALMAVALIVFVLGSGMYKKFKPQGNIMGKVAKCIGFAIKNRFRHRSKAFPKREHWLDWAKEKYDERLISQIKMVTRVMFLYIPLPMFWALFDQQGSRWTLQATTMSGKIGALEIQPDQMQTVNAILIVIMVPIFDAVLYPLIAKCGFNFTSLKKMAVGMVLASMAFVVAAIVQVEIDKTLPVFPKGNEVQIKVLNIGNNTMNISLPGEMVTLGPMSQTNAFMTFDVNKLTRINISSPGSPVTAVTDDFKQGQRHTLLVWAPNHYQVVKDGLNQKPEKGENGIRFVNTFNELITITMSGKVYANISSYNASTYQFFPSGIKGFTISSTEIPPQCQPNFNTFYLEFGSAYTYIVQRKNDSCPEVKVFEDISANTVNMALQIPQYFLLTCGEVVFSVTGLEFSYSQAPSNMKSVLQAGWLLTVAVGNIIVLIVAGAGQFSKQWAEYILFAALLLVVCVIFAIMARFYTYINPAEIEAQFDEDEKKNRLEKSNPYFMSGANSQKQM
Protocol: PepT1 assays are established to examine the ability of the amino acid prodrug compounds to interact with the intestinal absorption transporter PepT1.
HeLa cells, derived from human cancer cells, (American Type Culture Collection) are grown in Hyclone Medium (Invitrogen, Cat# SH30243) containing 10% fetal bovine serum (FBS), 0.1 mM non essential amino acids (NEAA), and 100 units/mL penicillin with 100 μg/mL streptomycin at 37° C. in a 5% CO2 humidified atmosphere. The cell line is used for up to 40 passages and then discarded. Frozen cells in 1 mL vials are thawed in water bath for 1-2 minutes and added to 5 mL of cell medium at 37° C. Each of the T-flasks is provided with 8.5 mL of the fresh medium and 1.5 mL of the cell stock. Cells are passaged twice during a week. […] Each new flask receives a combination of 8.5 mL of fresh medium and 1.5 mL of cell stock, in order to obtain 1:6 cell dilution. Cells are incubated at 37° C., until ready for the uptake study.
Cells that are 70-80% confluent in the T-flasks are plated 1 day prior to the transfection procedure. The flask with the cell stock is treated with PBS-EDTA and trypsin to detach the cells, and transfection medium is used from this point. Transfection medium consists of Dulbecco's Modified Eagle Medium (DMEM)+NEAA. To each well, 0.5 mL of the cell mixture is added (1.3×10^5 is the desired cell concentration) and the cells are incubated at 37° C. overnight. Twenty four hours before the assay, cells are transfected with PEPT1. Transfection mixture is prepared by mixing 600 μL of serum free transfection medium, 18 μL of FUGENE6® (Roche Diagnostics), and 11 μg of the PepT1 DNA. The transfection reagent-DNA complex is incubated for 20 minutes and 24 μL of the reagent-DNA complex is added to each well.
Inhibition of PEPT1-mediated [glycyl-1-2-^14C]Glyclysarcosine (GlySar) uptake activity is measured in the cells cultured in the 24-well plates 24-hours post transfection as previously published (Zhang et al. 2004. J. Pharm. Exper Ther. 310:437-445). To measure the ability of a compound of the present invention to inhibit the uptake of [^14C]Gly-Sar, prodrug compounds are incubated with 80 to 90% confluent PepT1 transiently transfected HeLa cells at 5 mM in pH 6.0 uptake medium in the presence of 5 μM [^14C]Gly-Sar (Moravek Biochemicals) and 20 μM cold Gly-Sar. Uptake media consists of 140 mM NaCl, 5.4 mM KCl, 1.8 mM CaCl2, 0.8 mM MgSO4, 5 mM Glucose, 25 mM tris(hydroxymethyl)aminomethane buffer (TRIS). The solution is then brought to pH 6.0 using 2-(N-morpholino)ethanesulfonic acid. The incubation volume is 500 μL and is performed at room temperature for 3 minutes. To stop the uptake at the conclusion of the incubation time, the uptake media is aspirated off of the cell monolayer and 500 μL of ice cold PBS added to the well. The cells are washed 3 times with 500 μL of room temperature PBS without Ca^+2 and Mg^+2. The cells are then lysed with 300 μL of 1% TRITON® X100 H2O solution. A 200 μL aliquot is removed and radioactivity is determined by liquid scintillation counting to measure the [^14C]Gly-Sar present in each of the incubation wells. A no inhibitor control is established and the percent inhibition of each prodrug is calculated with respect to this control.

[4] = system: stress-induced hyperthermia in rats; test: Attenuation of Stress-Induced Hyperthermia in Rats; type: in vivo, rat; details: i.p., 3 mg/kg
Text: In many anxiety disorders, hyperthermia occurs as part of the pathology and is considered a symptom of the disease. Compounds which attenuate stress-induced hyperthermia in animals are believed to be useful in treating anxiety disorders in humans. Generalized anxiety disorder is an example of such disorders that may be treated with such compounds. The conventional and minimally-invasive method for analyzing stress-induced hyperthermia is by measuring body temperature, and stress-induced increases in body temperature, via rectal thermometer. Male Fischer F-344 rats (Harlan, Indianapolis, Ind., USA) weighing between 275-350 g are tested. All animals are individually-housed with food and automated water available ad libitum, and maintained on a 12 h light/dark cycle (lights on at 06:00) Animals are fasted for approximately 12-18 hours before the experiment, which is conducted during the light phase. Rats are dosed one hour prior to the experiment by intraperitoneal (i.p.) route of administration in a dose volume of 1 mL/kg. The vehicle used was water with enough NaOH added to achieve a pH between 5-7. The mGluR5 antagonist MTEP (3-[(2-methyl-1,3-thiazol-4-yl)ethynyl]pyridine) and mGlu2/3 agonist LY317206 were used as quality controls, given that they produced reliable efficacy in this model Immediately following dosing, rats are returned to their home cage, and the experimenter turns off the lights and leaves the room. The dosing room is darkened for the remainder of the 1-hr pretreatment period.
After the pretreatment period, rats are taken individually to a brightly lit adjacent room where baseline body temperatures are determined by insertion of a rectal probe lubricated with mineral oil. Body temperature is assessed using a […] BAT-12® Microprobe Thermometer with a […] RET-2® rat rectal probe (Physitemp Instruments Inc., Clifton, N.J., USA). The probe is inserted approximately 2 cm into the rectum, to measure the core body temperature (this is the baseline body temperature, T1, in degrees Celsius). Ten minutes later a second body temperature measurement is recorded (T2). […]

Structure (SMILES): Cl.N[C@@]1(C(=O)O)C[C@@H](Sc2nnc(C(F)F)[nH]2)[C@H]2[C@H](C(=O)O)[C@H]21 [Example 8, (1R,2S,4R,5R,6R)-2-Amino-4-(5-difluoromethyl-1H-[1,2,4]triazol-3-ylsulfanyl)-bicyclo[3.1.0]hexane-2,6-dicarboxylic acid hydrochloride]
reversal of PCP-induced locomotor activity ([1]; single dose of 10 mg/kg): 52%
ED60 (60% of the amount of immobility relative to vehicle controls) [2]: 7.95 mg/kg

Structure (SMILES): N[C@@]1(C(=O)O)C[C@H](Sc2c[nH]nn2)[C@H]2[C@H](C(=O)O)[C@H]21 [Example 11, (1R,2S,4S,5R,6R)-2-Amino-4-(1H-triazol-4-ylsulfanyl)bicyclo[3.1.0] hexane-2,6-dicarboxylic acid hydrochloride]
ED50 ([1]; Mus musculus, i.p. administration, 30 minutes prior to 7.5 mg/kg PCP): 1.2 mg/kg
efficacy in forced swim test, second study ([2]; i.p., higher doses (3-30 mg/kg)): efficacy was lost
ED60 (60% of the amount of immobility relative to vehicle controls) [2]: 0.88 mg/kg

Structure (SMILES): C[C@H](N)C(=O)N[C@@]1(C(=O)O)C[C@@H](Sc2cn[nH]n2)[C@H]2[C@H](C(=O)O)[C@H]21.Cl [Example 19, (1R,2S,4R,5R,6R)-2-[[(2S)-2-Aminopropanoyl]amino]4-(2H-1,2,3-triazol-4-ylsulfanyl)bicyclo[3.1.0] hexane-2,6-dicarboxylic acid hydrochloride]
In Vitro Human Intestinal Hydrolysis % (relative to positive control) [3]: 58.1%

Structure (SMILES): Cc1nc(C#Cc2cccnc2)cs1 [MTEP, 3-[(2-methyl-1,3-thiazol-4-yl)ethynyl]pyridine, reference compound]
reduction of stress-induced hyperthermia [4]: 53%

Continued, values first:

In Vitro Human Intestinal Hydrolysis % (relative to positive control) [3]: 63.3%
Structure (SMILES): CSCC[C@H](N)C(=O)N[C@@]1(C(=O)O)C[C@@H](Sc2nnc(C(F)(F)F)[nH]2)[C@H]2[C@H](C(=O)O)[C@H]21.Cl [Example 17, (1R,2S,4R,5R,6R)-2-((S)-2-Amino-4-methylsulfanyl-butyrylamino)-4-(5-trifluoromethyl-1H-[1,2,4]triazol-3-ylsulfanyl)-bicyclo[3.1.0]hexane-2,6-dicarboxylic acid hydrochloride]

In Vitro Human Intestinal Hydrolysis % (relative to positive control) [3]: 65.5%
Structure (SMILES): Cl.NCC(=O)N[C@@]1(C(=O)O)C[C@@H](Sc2nnc(C(F)(F)F)[nH]2)[C@H]2[C@H](C(=O)O)[C@H]21 [Example 18, (1R,2S,4R,5R,6R)-2-(glycylamino)-4-{[5-(trifluoromethyl)-1H-1,2,4-triazol-3-yl]sulfanyl}bicyclo[3.1.0] hexane-2,6-dicarboxylic acid hydrochloride]

inhibition at 5000 µM (PepT1): 57.4%
In Vitro Human Intestinal Hydrolysis % (relative to positive control) [3]: 63.8%
Structure (SMILES): CSCC[C@H](N)C(=O)N[C@@]1(C(=O)O)C[C@@H](Sc2cn[nH]n2)[C@H]2[C@H](C(=O)O)[C@H]21.Cl [Example 21, (1R,2S,4R,5R,6R)-2-((S)-2-Amino-4-methylsulfanyl-butyrylamino)-4-(2H-[1,2,3]triazol-4-ylsulfanyl)-bicyclo[3.1.0]hexane-2,6-dicarboxylic acid hydrochloride]
